For this assay, the system named is C57BL/6 mice. Briefly: Tail suspension test (TST). It counts as in vivo. The conditions noted are these: acute i.p. pretreatment, ST-2300 10 or 15 mg/kg, PIM 5–15 mg/kg, FLX 10 mg/kg, vs saline controls, C57BL/6 mice, 6 min. The protocol: Inbred adult male C57BL/6 mice (aged 10–12 weeks and weighing 20–25 g) were obtained from the animal facility in the College of Medicine and Health Sciences, United Arab Emirates University. The animals were maintained in a separate air-conditioned room with controlled temperature and humidity (24 ± 2 °C and 55 ± 15%, respectively), with a 12 h light/dark cycle, and ad libitum to food and water. All the experiments were performed between 9.00 am and 3.00 pm. The procedures were approved by the Institutional Animal Ethics Committee of College of Medicine and Health Sciences/United Arab Emirates University (Approval No. ERA-2019-6010). To reduce the suffering of the animals, a minimum number of animals were used in this study, whereas the objectives were not compromised.
These experiments provide the first behavioral assessment of the ST-2300 in anxiety-like and depression-like behaviors in mice. All doses are expressed in terms of the free base of all test compounds. The drugs used in the current study were dissolved in saline and injected i.p. at a volume of 1 mL/kg. All experimental procedures were conducted in a blinded fashion in which the experimenter was uninformed about the specific treatment groups to which an animal group belonged. Saline, ST-2300 (5, 10, and 15 mg/kg), PIM (5, 10, and 15 mg/kg), FLX (10 mg/kg), RAM (10 mg/kg), and DZP (1 mg/kg) were injected i.p. 30–45 min before the beginning of the behavioral experiments.
This experimental protocol was followed as previously described, however with slight modifications. Each mouse was suspended on the edge of a rod 50 cm above a table top using adhesive Scotch tape placed approximately 1 cm from the tip of the tail. Tail climbing was prevented by passing the mouse’s tail through a small plastic cylinder prior to suspension, as described by Can et al.. The duration of immobility was manually scored for a 6 min observation period. Mice were considered immobile only when they hung down passively and were completely motionless. The parameter recorded was the number of seconds spent immobile.

Consider `CNCCC(Oc1ccc(C(F)(F)F)cc1)c1ccccc1` (stereo not shown) [FLX, fluoxetine, reference compound], for which the “immobility time in TST” value was “significant differences between FLX and saline controls”.

The record behind these values is publication PMC9138994 (Biomolecules, 2022).
